# Test results reported in ChEMBL document CHEMBL1201862, “PubChem BioAssay data set” (2004).
# Active and inactive are the calls of the source.
# Legend:
# [1] = viability of uninfected HEp-2 cells – cell-based, HTS, cytotoxicity control for RSV inhibitor project, dose response (AID 2410); format: functional; settings: human respiratory syncytial virus
# [2] = biological target: T1, Short transient receptor potential channel 4 (Mus musculus, UniProt Q9QUQ5); experiment: block of DAMGO-driven TRPC4 calcium entry – cell-based, HEK293 TRPC4/mu-opioid, Fluo-4 calcium, dose response (AID 434942); format: functional;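 also: potency of inhibitors blocking the TRPC4 calcium response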
# T1 sequence (Q9QUQ5 whole entry): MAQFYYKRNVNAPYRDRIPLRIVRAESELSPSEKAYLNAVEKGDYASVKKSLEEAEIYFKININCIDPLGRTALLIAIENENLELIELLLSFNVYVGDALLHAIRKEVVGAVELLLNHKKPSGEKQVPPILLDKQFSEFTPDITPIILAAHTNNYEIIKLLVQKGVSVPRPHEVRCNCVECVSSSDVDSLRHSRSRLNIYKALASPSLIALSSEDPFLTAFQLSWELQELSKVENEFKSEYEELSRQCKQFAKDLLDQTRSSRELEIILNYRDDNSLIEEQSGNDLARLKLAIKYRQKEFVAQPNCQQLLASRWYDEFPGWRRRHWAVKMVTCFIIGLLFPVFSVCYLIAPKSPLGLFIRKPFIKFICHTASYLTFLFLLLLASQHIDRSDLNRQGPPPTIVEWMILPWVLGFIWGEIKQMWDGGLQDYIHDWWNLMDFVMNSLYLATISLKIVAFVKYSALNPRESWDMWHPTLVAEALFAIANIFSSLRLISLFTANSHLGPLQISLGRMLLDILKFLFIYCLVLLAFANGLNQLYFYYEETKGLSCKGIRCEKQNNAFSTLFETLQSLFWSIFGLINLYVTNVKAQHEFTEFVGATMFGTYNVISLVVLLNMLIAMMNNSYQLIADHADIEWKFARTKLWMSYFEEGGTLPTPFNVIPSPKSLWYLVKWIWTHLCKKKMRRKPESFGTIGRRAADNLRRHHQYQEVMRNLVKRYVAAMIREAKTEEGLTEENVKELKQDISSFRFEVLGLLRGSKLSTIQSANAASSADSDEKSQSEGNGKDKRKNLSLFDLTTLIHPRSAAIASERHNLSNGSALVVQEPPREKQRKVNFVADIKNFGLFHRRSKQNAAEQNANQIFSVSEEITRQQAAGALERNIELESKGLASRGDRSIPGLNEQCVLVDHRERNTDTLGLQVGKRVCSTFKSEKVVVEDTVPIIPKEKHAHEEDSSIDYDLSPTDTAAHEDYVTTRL
# [3] = Trypanosoma cruzi growth suppression in host cells – NIH3T3 host cells, beta-gal luminescence, confirmation (AID 2044); format: functional, cell-based;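 also: intracellular parasites grown in NIH/3T3 mouse fibroblasts as host cells; luminescent beta-galactosidase reporter signal from transgenic T. cruzi replicating inside host cells; inhibitors lower the luminescence signal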
# [4] = NIH3T3 cell viability loss – ATP luminescence, mouse fibroblasts, counter-screen, dose response (AID 2010); format: functional, cell-based;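 also: cells exposed to compound for about 90 hours before reading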
# [5] = biological target: T2, Mannose-6-phosphate isomerase (Homo sapiens, UniProt P34949); experiment: MPI inhibition at elevated mannose 6-phosphate – biochemical, fluorescence intensity, high mannose 6-phosphate, primary screen (AID 1220)
# T2 sequence (P34949 whole entry): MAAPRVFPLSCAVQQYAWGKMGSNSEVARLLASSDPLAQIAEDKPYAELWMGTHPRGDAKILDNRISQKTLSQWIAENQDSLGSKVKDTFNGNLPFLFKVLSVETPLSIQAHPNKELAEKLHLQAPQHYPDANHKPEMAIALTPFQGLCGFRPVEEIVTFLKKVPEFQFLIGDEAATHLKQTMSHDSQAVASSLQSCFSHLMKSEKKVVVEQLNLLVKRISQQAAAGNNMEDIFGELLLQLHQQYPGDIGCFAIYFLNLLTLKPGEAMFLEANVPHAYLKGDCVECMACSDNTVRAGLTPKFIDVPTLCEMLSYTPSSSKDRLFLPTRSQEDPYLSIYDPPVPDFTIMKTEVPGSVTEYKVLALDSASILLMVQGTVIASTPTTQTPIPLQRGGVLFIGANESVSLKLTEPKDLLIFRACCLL
# [6] = biological target: T1, Short transient receptor potential channel 4; experiment: calcium entry via TRPC4 opening agents – cell-based, HEK293 TRPC4/mu-opioid, Fluo-4 calcium, dose response (AID 434937); format: functional
# [7] = biological target: Glyceraldehyde-3-phosphate dehydrogenase (Homo sapiens, UniProt P04406)
# [8] = biological target: Luciferin 4-monooxygenase (Photinus pyralis, UniProt P08659); experiment: inhibition of purified Photinus pyralis luciferase – biochemical, luminescence, dose response (AID 1891)
# [9] = Luminescence Cell-Based Dose Confirmation HTS to Identify Inhibitors of Platelet Dense Granule Release. [Related pubchem assays: 1663 (Primary HTS), 1678 (Summary of Project)]; format: functional
# [10] = biological target: Cytochrome P450 2C19 (Homo sapiens, UniProt P33261); experiment: Cytochrome panel assay with activity outcomes. Panel member name: p450-cyp2c19 Compounds with AC50 equal or less than 10 uM are considered active; format: functional; settings: read-out: AC50
# [11] = biological target: T3, Cytochrome P450 1A2 (Homo sapiens, UniProt P05177);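 also: PubChem cytochrome P450 panel assay, CYP1A2 panel member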
# T3 sequence (P05177 whole entry): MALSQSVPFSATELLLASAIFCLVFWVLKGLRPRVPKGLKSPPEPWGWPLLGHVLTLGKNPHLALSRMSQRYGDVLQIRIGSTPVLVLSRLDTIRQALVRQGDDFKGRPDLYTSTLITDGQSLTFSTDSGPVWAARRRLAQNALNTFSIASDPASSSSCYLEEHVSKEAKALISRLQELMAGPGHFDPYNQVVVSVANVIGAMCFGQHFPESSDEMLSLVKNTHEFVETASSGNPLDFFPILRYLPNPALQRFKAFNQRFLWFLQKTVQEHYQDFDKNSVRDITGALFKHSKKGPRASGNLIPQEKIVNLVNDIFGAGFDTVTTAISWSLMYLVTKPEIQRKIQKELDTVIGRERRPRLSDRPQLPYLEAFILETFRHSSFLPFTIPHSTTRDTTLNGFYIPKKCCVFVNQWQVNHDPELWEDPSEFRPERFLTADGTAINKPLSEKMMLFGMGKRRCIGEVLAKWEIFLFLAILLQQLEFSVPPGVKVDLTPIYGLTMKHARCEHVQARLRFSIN
# [12] = biological target: Cytochrome P450 2C9 (Homo sapiens, UniProt P11712)
# [13] = biological target: T4, Heat shock factor protein 1 (Mus musculus, UniProt P38532); experiment: enhancement of HSF1-driven luciferase signal – cell-based, NIH3T3, luminescence, dose retest, confirmation (AID 435004); format: functional;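 also: stress induced by proteasome inhibitor MG132 added 30 min after compound; luciferase reporter driven by HSF1 response element in NIH3T3 cells; actives raise luminescence as potentiators of the MG132 stress response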
# T4 sequence (P38532 whole entry): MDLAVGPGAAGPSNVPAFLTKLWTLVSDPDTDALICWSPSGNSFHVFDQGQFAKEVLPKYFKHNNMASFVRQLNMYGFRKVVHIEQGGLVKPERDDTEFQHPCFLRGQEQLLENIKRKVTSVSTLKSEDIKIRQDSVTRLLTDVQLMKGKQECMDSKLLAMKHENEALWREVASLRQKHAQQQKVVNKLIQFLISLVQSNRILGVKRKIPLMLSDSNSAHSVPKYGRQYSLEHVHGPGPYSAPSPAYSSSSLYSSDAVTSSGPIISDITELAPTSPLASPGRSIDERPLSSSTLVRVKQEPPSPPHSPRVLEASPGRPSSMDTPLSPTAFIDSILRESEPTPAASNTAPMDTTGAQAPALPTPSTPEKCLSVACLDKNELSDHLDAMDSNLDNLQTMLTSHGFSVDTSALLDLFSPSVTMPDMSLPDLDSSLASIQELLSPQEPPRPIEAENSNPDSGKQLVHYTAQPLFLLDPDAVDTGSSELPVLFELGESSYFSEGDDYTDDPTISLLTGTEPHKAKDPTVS
# [14] = biological target: T5, Corticotropin-releasing factor receptor 2/Corticotropin-releasing factor-binding protein (Homo sapiens, UniProt P24387+Q13324); experiment: activators of CRF receptor 2 with binding protein – uHTS hits, confirmation (AID 602473); format: functional; settings: read-out: EC50_Mean
# T5 sequence (Q13324 whole entry): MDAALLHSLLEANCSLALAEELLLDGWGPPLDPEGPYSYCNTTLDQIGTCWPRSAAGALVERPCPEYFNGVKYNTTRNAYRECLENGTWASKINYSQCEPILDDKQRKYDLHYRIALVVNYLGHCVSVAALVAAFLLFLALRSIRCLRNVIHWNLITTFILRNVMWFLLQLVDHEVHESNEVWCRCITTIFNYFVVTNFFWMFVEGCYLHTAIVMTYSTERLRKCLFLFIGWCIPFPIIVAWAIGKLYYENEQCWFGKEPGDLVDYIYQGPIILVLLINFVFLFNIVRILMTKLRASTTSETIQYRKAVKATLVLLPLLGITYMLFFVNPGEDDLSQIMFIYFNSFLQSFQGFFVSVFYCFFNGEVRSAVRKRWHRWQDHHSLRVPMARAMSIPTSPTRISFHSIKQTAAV
# T5 sequence (P24387 whole entry): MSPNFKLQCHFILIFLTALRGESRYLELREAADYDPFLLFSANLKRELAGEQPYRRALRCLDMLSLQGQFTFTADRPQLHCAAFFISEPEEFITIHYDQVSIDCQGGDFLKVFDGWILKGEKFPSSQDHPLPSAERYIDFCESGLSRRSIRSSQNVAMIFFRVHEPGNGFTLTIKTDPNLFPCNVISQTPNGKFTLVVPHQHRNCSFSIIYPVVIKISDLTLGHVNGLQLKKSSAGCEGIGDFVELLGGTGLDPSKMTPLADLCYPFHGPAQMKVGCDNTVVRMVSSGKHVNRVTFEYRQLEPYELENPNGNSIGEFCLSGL
# [15] = HIV-1 AD8 envelope cell-cell fusion blockers – cherry-pick, dose response (AID 652062); format: functional, cell-based;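 also: luciferase signal from cell-cell fusion driven by HIV-1 clade B AD8 Env; potency is for inhibitors of fusion seen as a drop in luminescence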
# [16] = biological target: Paired box protein Pax-8 (Homo sapiens, UniProt Q06710); experiment: PAX8 transcriptional activity inhibition in RMG-I – RMG-I cells, luciferase, cherry-pick, dose response (AID 687027); format: functional, cell-based;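 also: luciferase reporter driven by Pax8 target thyroperoxidase promoter measured by SteadyGlo luminescence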
# [17] = tested on: Streptococcus sp. 'group A'; experiment: Streptococcus pyogenes SK(-)GAS viability under kanamycin – luminescence, BacTiterGlo, confirmation, counter-screen for streptokinase expression inhibitor project, dose response (AID 1900); format: functional, organism-based
# [18] = tested on: Streptococcus; experiment: GAS UMAA2166 growth inhibition – luminescence, BacTiterGlo, counter-screen for streptokinase expression inhibitor project, dose response (AID 1915); format: functional, organism-based;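 also: potency for reduction of bacterial viability or growth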
# [19] = biological target: Heat shock protein HSP 90-alpha (Homo sapiens, UniProt P07900); format: functional, organism-based
# Chain of Paired box protein Pax-8 (Q06710 whole entry): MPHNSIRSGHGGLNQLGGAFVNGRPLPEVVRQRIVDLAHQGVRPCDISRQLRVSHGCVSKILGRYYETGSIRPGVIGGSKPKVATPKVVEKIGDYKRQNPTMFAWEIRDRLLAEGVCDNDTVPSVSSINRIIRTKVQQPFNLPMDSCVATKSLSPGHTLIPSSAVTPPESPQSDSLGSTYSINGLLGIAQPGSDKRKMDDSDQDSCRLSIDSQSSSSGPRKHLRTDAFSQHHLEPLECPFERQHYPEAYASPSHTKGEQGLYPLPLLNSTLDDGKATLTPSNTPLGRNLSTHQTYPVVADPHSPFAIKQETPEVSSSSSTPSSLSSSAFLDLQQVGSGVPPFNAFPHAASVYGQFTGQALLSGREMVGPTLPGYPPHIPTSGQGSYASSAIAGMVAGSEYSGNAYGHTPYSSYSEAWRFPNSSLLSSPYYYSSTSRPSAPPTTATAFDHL
# Chain of Glyceraldehyde-3-phosphate dehydrogenase (P04406 whole entry): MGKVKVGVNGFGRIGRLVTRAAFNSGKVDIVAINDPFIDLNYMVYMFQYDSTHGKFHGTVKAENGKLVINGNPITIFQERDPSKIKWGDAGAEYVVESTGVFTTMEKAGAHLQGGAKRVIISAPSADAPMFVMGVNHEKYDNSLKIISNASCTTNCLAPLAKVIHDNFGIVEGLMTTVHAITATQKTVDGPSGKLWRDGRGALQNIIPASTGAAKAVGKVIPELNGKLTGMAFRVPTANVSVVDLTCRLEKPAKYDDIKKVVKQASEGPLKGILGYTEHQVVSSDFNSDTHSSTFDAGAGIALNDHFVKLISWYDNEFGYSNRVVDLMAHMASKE
# Chain of Cytochrome P450 2C19 (P33261 whole entry): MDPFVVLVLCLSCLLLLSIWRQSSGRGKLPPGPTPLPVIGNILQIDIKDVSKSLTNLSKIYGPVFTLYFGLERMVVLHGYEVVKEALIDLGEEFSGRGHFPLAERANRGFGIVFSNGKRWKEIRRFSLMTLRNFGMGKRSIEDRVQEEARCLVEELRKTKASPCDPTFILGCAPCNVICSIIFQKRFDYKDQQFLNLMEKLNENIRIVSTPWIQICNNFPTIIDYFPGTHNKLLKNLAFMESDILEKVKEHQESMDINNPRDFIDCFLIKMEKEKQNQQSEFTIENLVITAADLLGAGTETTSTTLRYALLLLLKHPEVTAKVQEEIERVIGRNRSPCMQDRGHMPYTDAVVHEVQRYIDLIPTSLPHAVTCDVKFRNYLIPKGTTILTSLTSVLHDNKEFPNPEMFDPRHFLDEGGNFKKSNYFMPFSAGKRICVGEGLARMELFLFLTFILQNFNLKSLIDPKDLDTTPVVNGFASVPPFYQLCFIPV
# Chain of Cytochrome P450 2C9 (P11712 whole entry): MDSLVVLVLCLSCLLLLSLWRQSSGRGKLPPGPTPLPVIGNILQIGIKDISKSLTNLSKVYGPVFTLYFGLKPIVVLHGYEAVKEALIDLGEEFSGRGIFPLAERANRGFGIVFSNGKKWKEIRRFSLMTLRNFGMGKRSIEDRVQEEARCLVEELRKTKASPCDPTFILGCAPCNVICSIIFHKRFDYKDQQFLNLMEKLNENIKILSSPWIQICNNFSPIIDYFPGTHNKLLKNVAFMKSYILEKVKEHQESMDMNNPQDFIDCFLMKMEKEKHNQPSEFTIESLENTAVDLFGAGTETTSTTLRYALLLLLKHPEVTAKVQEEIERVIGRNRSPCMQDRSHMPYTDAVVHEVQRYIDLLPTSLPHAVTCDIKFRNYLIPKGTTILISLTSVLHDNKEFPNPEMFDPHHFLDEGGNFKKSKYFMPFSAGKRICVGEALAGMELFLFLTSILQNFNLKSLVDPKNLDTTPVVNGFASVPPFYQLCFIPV
# Chain of Luciferin 4-monooxygenase (P08659 whole entry): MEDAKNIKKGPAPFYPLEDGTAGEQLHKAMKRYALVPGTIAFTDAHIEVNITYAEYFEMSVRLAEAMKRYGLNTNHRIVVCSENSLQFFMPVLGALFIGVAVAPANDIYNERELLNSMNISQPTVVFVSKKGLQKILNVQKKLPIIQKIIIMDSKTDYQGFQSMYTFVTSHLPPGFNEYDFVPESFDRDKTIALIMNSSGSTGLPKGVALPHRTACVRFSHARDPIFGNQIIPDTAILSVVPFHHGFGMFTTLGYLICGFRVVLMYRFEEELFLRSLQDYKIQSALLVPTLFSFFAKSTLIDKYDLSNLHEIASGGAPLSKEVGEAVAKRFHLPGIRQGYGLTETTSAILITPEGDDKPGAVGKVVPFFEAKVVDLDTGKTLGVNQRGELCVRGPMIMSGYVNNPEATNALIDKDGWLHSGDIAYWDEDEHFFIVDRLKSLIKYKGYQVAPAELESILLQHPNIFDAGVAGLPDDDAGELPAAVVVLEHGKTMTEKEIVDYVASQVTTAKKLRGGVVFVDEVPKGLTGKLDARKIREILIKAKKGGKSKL
smiles,measurement,setting,value
Cc1nc(Cl)c(Cl)n1CCOc1ccccc1,CC50,[1],20.9 µM (active)
same,EC50,[2],5.31 µM (active)
Cc1ccc(C(CNS(=O)(=O)c2ccc([N+](=O)[O-])cc2)N2CCN(C)CC2)cc1 (stereo not given),EC50,[3],1.65 µM (active)
same,EC50,[4],> 60 µM (not active)
same,EC50,[2],0.0093 µM (active)
COc1ccc(N(C)C(=O)Nc2ccc3nsnc3c2)cc1,IC50,[5],> 50 µM (not active)
CCOc1ccc(CN2CCNC(=O)C2CC(=O)NCCc2ccccn2)cc1 (stereo not given),EC50,[6],6.68 µM (active)
CC1CCCN(CCCN2C(=O)C3C(C(=O)Nc4ccc(Cl)cc4)C4C=CC3(O4)C2C(=O)NC2CCCCC2)C1 (stereo not given),EC50,[2],0.335 µM (active)
O=C1C(Cl)=C(N2CCN(c3ncccn3)CC2)C(=O)N1c1ccc(C(F)(F)F)cc1,IC50,[7],> 50 µM (inconclusive)
O=C1C(Cl)=C(N2CCN(c3ccccc3)CC2)C(=O)N1c1cccc(C(F)(F)F)c1,IC50,[7],> 50 µM (inconclusive)
Cc1cc(OCCn2ccnc2)cc(C)c1Cl,EC50,[6],3.76 µM (active)
CCC(C)C1=CC(=Nc2c(C)n(C)n(-c3ccccc3)c2=O)C=C(C(C)CC)C1=O (stereo not given),IC50,[5],> 50 µM (not active)
Cc1cc(C=C2C(=O)N(C)C(=S)N(C)C2=O)c(C)n1-c1cccnc1,IC50,[5],> 50 µM (not active)
O=C(NCCCN1CCN(c2cccc(Cl)c2)CC1)C1CCC(=O)N1Cc1ccccc1Cl (stereo not given),EC50,[8],> 112 µM (not active)
same,EC50,[9],> 112 µM (not active)
same,EC50,[2],2.99 µM (active)
same,AC50,[10],10 µM (inconclusive)
same,AC50,[11],0.00631 µM (inconclusive)
same,AC50,[12],15.8 µM (inconclusive)
Cc1cc(C)c(C)c(OCCCN(C)C)c1,EC50,[6],0.168 µM (active)
Oc1cc(-c2ccccc2)c2ccccc2c1,IC50,[5],14.4 µM (active)
same,EC50,[13],40.1 µM (active)
CC1CC(C)(C)N(C(=O)CN2C(=O)c3ccccc3C2=O)c2ccccc21 (stereo not given),EC50,[2],4.22 µM (active)
same,EC50,[6],5.96 µM (active)
same,EC50,[14],6.44 µM (active)
CC(C)(C)[C@H]1C=C(C(=O)NCc2ccccc2)O[C@@H](OCc2ccc(CO)cc2)C1,EC50,[6],9.44 µM (active)
c1ccc(Cn2nnnc2C(c2cccnc2)N2CCN(C3CCCCC3)CC2)cc1 (stereo not given),EC50,[6],1.68 µM (active)
CC1(C)CC(=O)c2cc(C(=O)NCc3ccco3)c(=O)n(-c3ccc(Cl)cc3)c2C1,EC50,[6],6.68 µM (active)
COc1ccc(SC[C@H](Cc2ccccc2)N2CCN(C)CCC2=O)cc1,EC50,[2],1.33 µM (active)
Cc1ccc(S(=O)(=O)Nc2cccc(C(=O)NCC(c3ccccc3)N(C)C)c2)cc1F (stereo not given),EC50,[2],0.267 µM (active)
same,EC50,[6],5.31 µM (active)
CC1CCCN(C(=O)c2ccc(S(=O)(=O)N3CCC(c4nc5ccccc5s4)CC3)cc2)C1 (stereo not given),AC50,[15],5.85 µM (active)
COc1ccc(S(=O)(=O)N(C)C[C@H]2Oc3ccc(NC(=O)Nc4ccc(C(F)(F)F)cc4)cc3CC(=O)N([C@H](C)CO)C[C@@H]2C)cc1,AC50,[16],11.9 µM (active)
COc1ccc(NC(=O)Nc2ccc3c(c2)CC(=O)N([C@@H](C)CO)C[C@@H](C)[C@@H](CN(C)Cc2ccc(Oc4ccccc4)cc2)O3)cc1,AC50,[16],25.3 µM (active)
C[C@@H]1CCCCO[C@@H](CN(C)C(=O)Nc2ccccc2)[C@H](C)CN([C@H](C)CO)C(=O)c2cc(NC(=O)Nc3ccc(C(F)(F)F)cc3)ccc2O1,AC50,[16],3.07 µM (active)
O=C(O)c1ccc(N/N=C/c2ccc(-c3cccc(Cl)c3)o2)cc1,EC50,[17],3.86 µM (active)
same,EC50,[18],10.7 µM (active)
same,EC50,[2],4.73 µM (active)
same,AC50,[19],8 µM (active)
O=C(NCCO)c1cc(-c2cc(F)c(F)cc2F)n[nH]1,IC50,[7],> 10 µM (inconclusive)
